Reference: patent publication US20090217390A1, “Non-human animal sarcoma model” (priority 2005, published 2009)
Where “and” joins values, the source holds several entries; their conditions need not be identical. Equal values may be shown once.

Legend:
Assay type in all cases: cell-based, mouse
[1] = system: C3H/10T1/2 parental cell line; assay: Cytotoxicity experiment with increasing doses of blasticidin; settings: doses 0.3-3 μg/ml
Protocol: The selective blasticidin dose was established on the basis of a previous cytotoxicity experiment for the C3H/10T1/2 parental cell line, which received increasing doses of blasticidin (0.3, 0.6, 0.8, 1, 1.5, 2, 2.5, 3 μg/ml). 2 μg/ml was determined to be the lowest dose that induced 100% death due to cytotoxicity.

[2] = system: EWS-FLI1 chimeric fusion expression in clone 7.5; assay: Induction of chimeric fusion by doxycycline (RT-PCR), clone 7.5; settings: 48 hours
Protocol: (§1) FIG. 3. Induction of chimeric fusion by Doxycycline. A. Upper gel. Induction of chimeric fusion following treatment of the cells with increasing doxycycline doses (0-3 μg/ml) in clone 7.5. The maximum induction was obtained for 2.5-μg/ml doxycycline doses. Lower gel. The quantity of amplified product was identical in all cases, as shown by Beta-actin. B. Upper gel. The maximum induction for clone 10.6 was at 1.5-μg/ml doxycycline doses. Higher doses caused saturation of the promoter's response. Lower gel. Beta-actin.
(§2) Clones 7.5 and 10.6 received increasing doses of doxycycline for 48 hours, after which time the presence of fusion was examined by means of RT-PCR.

[3] = system: EWS-FLI1 chimeric fusion expression in clone 10.6; assay: Induction of chimeric fusion by doxycycline (RT-PCR), clone 10.6; settings: 48 hours
Protocol: as §1, §2

Row | Compound | lowest dose that induced 100% death due to cytotoxicity [1] [µg/mL] | doxycycline dose causing a slight induction of chimeric fusion [2] [µg/mL] | doxycycline concentration of maximum induction of chimeric fusion ([2]; doses 0-3 μg/ml) [µg/mL] | doxycycline concentration of maximum induction of chimeric fusion (higher doses cause no greater induction) [3] | doxycycline dose at which induction of fusion was found [3]
1 | CN(CC[C@H](N)CC(=O)N[C@H]1C=C[C@H](n2ccc(N)nc2=O)O[C@@H]1C(=O)O)C(=N)N [blasticidin] | 2 |  |  |  | 
2 | C[C@H]1c2cccc(O)c2C(=O)C2=C(O)[C@]3(O)C(=O)C(C(N)=O)=C(O)[C@@H](N(C)C)[C@@H]3[C@@H](O)[C@@H]21 [doxycycline] |  | 0.3 | 2.5 | 1.5 to 2 µg/mL and 1.5 µg/mL | greater than 0.3 μg/ml
